The text below walks through data of patent US8946280B2, “Plant growth regulating compounds” (Syngenta Participations AG, priority 2010, dated 2015).

For the assay, the system named is Orobanche cumana Wallr. seeds (race F; seed lots IN146 and IN153). Nature of the assay: Germination of preconditioned Orobanche cumana seeds on glass fiber filter paper in petri dishes. It is filed as in vivo. Particulars: mean, N = 5 × 100 seeds, re-transformed data; for Germination (%): seed lot IN146 raceF, examined 10 days later. As for the experimental part:
The effect of compounds of formula (I) on germination of Orobanche cumana Wallr. seeds was evaluated on glass fiber filter paper (GFFP) in petri dishes. Seeds were preconditioned at moisture and suitable temperature to become responsive to the specific chemical germination stimulants.
Test compounds were dissolved in DMSO (10 000 mg 1^−1) and stored at room temperature in a desiccators with desiccants. The stock solutions were dissolved with deionised water to the appropriate final test concentration.
Seeds of O. cumana race ‘F’ were collected from sunflower fields in Manzanilla (Seville, Spain) in 2006 (seed lot IN146) and 2008 (seed lot IN153) and stored at room temperature. To separate seeds from heavy organic debris, a modified sucrose floatation technique as described by Hartman & Tanimonure (Plant Disease (1991), 75, p. 494) was applied. Seeds were filled into a separation funnel and stirred in water. When seeds floated to the surface, the water fraction containing heavy debris was discarded. Seeds were re-suspended in 2.5M sucrose solution (specific gravity of 1.20) and heavy debris was allowed to settle down for 60 min. After removing debris, seeds were disinfected in 1% sodium hypochlorite solution and 0.025% (v/v) Tween 20 for 2 min. The seeds were decanted onto two layers of cheesecloth, rinsed with sterile deionised water and re-suspended in sterile deionised water. Two ml of the seed suspension containing approximately 150-400 seeds were spread evenly on two layers of sterile glass fiber filter paper disc ([…]) in Petri dishes (Ø9 cm). After wetting the discs with 3 ml sterile deionised water, petri dishes were sealed with parafilm. Seeds were incubated for 10 days at 20° C. in the dark for seed conditioning. The upper disc with conditioned seeds was briefly dried, transferred to a petri dish lined with a dry GFFP disc, and wetted with 6 ml of the appropriate test solution. The compounds of formula (I) were tested at concentrations of 0.001, 0.01, and 0.1 mg 1^−1. The strigolactone analogue GR24 (commercially available as a mixture of isomers) was included as positive control and 0.001% DMSO as negative control. All treatments were tested in five replicates. Seeds were re-incubated at 20° C. in the dark and examined for germination 10 days later. The radicles of germinated seeds were stained for 5 min with blue ink (MIGROS, Switzerland) in 5% acetic acid according to Long et al. (Seed Science Research (2008), 18, p. 125). After staining, seeds were scanned using a flatbed scanner with an optical resolution of 1200 dpi (PULSTEK, OpticPro ST28) or photographed using a camera stand mounted with a digital SLR camera (Canon EOS 5D). Germination of 100 seeds per replicate was evaluated on digital images. Seeds were considered germinated when the radicle protruded from the seed coat. SAS statistical software package version 9.1 was used for analysis of variance (GLM procedure) and multiple comparisons of treatment means (Sidak t-test) based on arcsine transformed percentage germination data.

Where [1] appears, read: 0.001 mg l^−1, lot IN146, raceF, Table 4.
Where [2] appears, read: 0.01 mg l^−1, lot IN146, raceF, Table 4.
Where [3] appears, read: 0.1 mg l^−1, lot IN146, raceF, Table 4.
Setting [4] is: Table 5, seed lot IN146, race F, 0.001 mg l^−1.
Where [5] appears, read: Table 5, seed lot IN146, race F, 0.01 mg l^−1.
The mark [6] stands for this setting: Table 5, seed lot IN146, race F, 0.1 mg l^−1.
[7] abbreviates: Table 8, seed lot IN153, race F, 0.001 mg l^−1.
[8] abbreviates: Table 8, seed lot IN153, race F, 0.01 mg l^−1.
[9] abbreviates: Table 8, seed lot IN153, race F, 0.1 mg l^−1.
Where [10] appears, read: Table 7, seed lot IN153, race F, 0.001 mg l^−1.
The mark [11] stands for this setting: Table 7, seed lot IN153, race F, 0.01 mg l^−1.
[12] abbreviates: Table 7, seed lot IN153, race F, 0.1 mg l^−1.
Where [13] appears, read: Table 6, seed lot IN146, race F, 0.001 mg l^−1.
Where [14] appears, read: Table 6, seed lot IN146, race F, 0.01 mg l^−1.
The mark [15] stands for this setting: Table 6, seed lot IN146, race F, 0.1 mg l^−1.

`CC1=CC(OC=C2C(=O)NC3c4c(C#N)cccc4CC23)OC1=O` (mixture of isomers) [A12*]: the “Germination % at concentration of 0.001 mg l^−1” value (“Germination % … of 0.001 mg l^−1” for short) under setting [1] turned out to be 0 e %. The “Germination % at concentration of 0.01 mg l^−1” value (shortened to “Germination % … of 0.01 mg l^−1”) under setting [2] is 4.2 e %. Further, under setting [3], the “Germination % at concentration of 0.1 mg l^−1” value (shortened to “Germination % … of 0.1 mg l^−1”) was found to be 32 bcde %.

In the case of `CC1=CC(OC=C2C(=O)N(C(=O)OC(C)(C)C)C3c4ccccc4CC23)OC1=O` (mixture of isomers) [A15*], the “Germination % … of 0.001 mg l^−1” value under setting [4] stood at 0 e %. Besides, under setting [5], the “Germination % … of 0.01 mg l^−1” value was 12.4 de %. The “Germination % … of 0.1 mg l^−1” value under setting [6] amounted to 25 d %.

Regarding `CC1=CC(OC=C2C(=O)N(c3ccc(C#N)cn3)C3c4ccccc4CC23)OC1=O` (mixture of isomers) [A16*], the “Germination % … of 0.001 mg l^−1” value under setting [7] worked out at 7.8 fg %. Further, the “Germination % … of 0.01 mg l^−1” value under setting [8] is listed as 60.6 cde %. For the same molecule, under setting [9], the “Germination % … of 0.1 mg l^−1” value worked out at 88.2 abc %.

`CC1=CC(OC=C2C(=O)N(c3ccc(C(F)(F)F)cc3)C3c4ccccc4CC23)OC1=O` (mixture of isomers) [A19*]: the “Germination % … of 0.001 mg l^−1” value under setting [7] amounted to 71.5 abcde %. The “Germination % … of 0.01 mg l^−1” value under setting [8] was determined as 92.2 abc %. Besides, under setting [9], the “Germination % … of 0.1 mg l^−1” value stood at 96.4 a %.

In the case of `CC(=O)OC1c2ccccc2C2C1C(=COC1C=C(C)C(=O)O1)C(=O)N2C(=O)OC(C)(C)C` (mixture of isomers) [A24*], the “Germination % … of 0.001 mg l^−1” value under setting [7] came to 44.8 def %. Also, under setting [8], the “Germination % … of 0.01 mg l^−1” value was 86.4 abcd %. For the same molecule, under setting [9], the “Germination % … of 0.1 mg l^−1” value was 96.8 a %.

In the case of `CC1=CC(OC=C2C(=O)N(C(=O)OC(C)(C)C)C3c4ccccc4C(F)C23)OC1=O` (mixture of isomers) [A25*], under setting [10], the “Germination % … of 0.001 mg l^−1” value is 1.2 c %. For the same molecule, under setting [11], the “Germination % … of 0.01 mg l^−1” value is on record as 14.3 c %. The “Germination % … of 0.1 mg l^−1” value under setting [12] turned out to be 86.3 ab %.

`CC1=CC(OC=C2C(=O)N(CC#N)C3c4ccccc4CC23)OC1=O` (mixture of isomers) [A28*]: the “Germination % … of 0.001 mg l^−1” value under setting [7] is recorded as 42.4 ef %. For the same molecule, the “Germination % … of 0.01 mg l^−1” value under setting [8] is 89.2 abc %. Further, under setting [9], the “Germination % … of 0.1 mg l^−1” value is 96.3 ab %.

`C=CCN1C(=O)C(=COC2C=C(C)C(=O)O2)C2Cc3ccccc3C21` (mixture of isomers) [A29*]: under setting [7], the “Germination % … of 0.001 mg l^−1” value was found to be 90.3 abc %. Moreover, under setting [8], the “Germination % … of 0.01 mg l^−1” value is 94.5 abc %. In addition, the “Germination % … of 0.1 mg l^−1” value under setting [9] is listed as 94.0 abc %.

Regarding `CC1=CC(O/C=C2/C(=O)NC3c4ccccc4C[C@H]23)OC1=O` (stereo in doubt) [Compound P1, (3aR*,8bS*,5′R*)-3-[1-(4-Methyl-5-oxo-2,5-dihydro-furan-2-yloxy)-meth-(E)-ylidene]-3,3a,4,8b-tetrahydro-1H-indeno[1,2-b]pyrrol-2-one], the “Germination (%)” value reads like this: (0.001 mg l^−1) 70.5%; (0.01 mg l^−1) 83.7%; (0.1 mg l^−1) 83.1%.

`CC1=CC(O/C=C2/C(=O)N(Cc3ccc(F)cc3)C3c4ccccc4CC23)OC1=O` (stereo not drawn) [A27*, (3E)-1-[(4-fluorophenyl)methyl]-3-[(4-methyl-5-oxo-2H-furan-2-yl)oxymethylene]-4,8b-dihydro-3aH-indeno[1,2-b]pyrrol-2-one]: the “Germination % … of 0.001 mg l^−1” value under setting [7] was 7.7 fg %. In addition, under setting [8], the “Germination % … of 0.01 mg l^−1” value came out at 63.3 abcde %. Also, the “Germination % … of 0.1 mg l^−1” value under setting [9] was determined as 80.1 abcde %.

With `CC1=CC(OC=C2C(=O)NC3c4cccc(Br)c4CC23)OC1=O` (stereo not drawn) [Compound A2], the “Germination % … of 0.001 mg l^−1” value under setting [4] is reported as 76.9 abc %. The “Germination % … of 0.01 mg l^−1” value under setting [5] was 82 ab %. Also, under setting [6], the “Germination % … of 0.1 mg l^−1” value came out at 83.2 ab %.

Take `CC1=CC(OC=C2C(=O)NC3c4cc(C)ccc4CC23)OC1=O` (stereo not drawn) [Compound A3]: the “Germination % … of 0.001 mg l^−1” value under setting [10] is listed as 96.4 ab %. For the same molecule, the “Germination % … of 0.01 mg l^−1” value under setting [11] is 98.5 a %. Under setting [12], the “Germination % … of 0.1 mg l^−1” value is listed as 98.0 a %.

Consider `COc1ccc2c(c1)CC1C(=COC3C=C(C)C(=O)O3)C(=O)NC21` (stereo not drawn) [Compound A4], for which the “Germination % … of 0.001 mg l^−1” value under setting [10] came out at 98.9 a %. Further, under setting [11], the “Germination % … of 0.01 mg l^−1” value is 95.8 ab %. Besides, the “Germination % … of 0.1 mg l^−1” value under setting [12] is listed as 99.0 a %.

In the case of `CC1=CC(OC=C2C(=O)NC3c4cccc(C)c4CC23)OC1=O` (stereo not drawn) [Compound A5], the “Germination % … of 0.001 mg l^−1” value under setting [1] amounted to 74.5 abc %. The “Germination % … of 0.01 mg l^−1” value under setting [2] is given as 90 a %. Besides, under setting [3], the “Germination % … of 0.1 mg l^−1” value is recorded as 85.5 ab %.

On to `CC1=CC(OC=C2C(=O)NC3c4c(Br)cccc4CC23)OC1=O` (stereo not drawn) [Compound A6], for which the “Germination % … of 0.001 mg l^−1” value under setting [1] worked out at 22.3 cde %. For the same molecule, the “Germination % … of 0.01 mg l^−1” value under setting [2] stood at 59.2 abcd %. In addition, the “Germination % … of 0.1 mg l^−1” value under setting [3] was found to be 27.8 bcde %.

For `CC1=CC(OC=C2C(=O)NC3c4c(C)cccc4CC23)OC1=O` (stereo not drawn) [Compound A8], the “Germination % … of 0.001 mg l^−1” value under setting [13] was 72.9 bc %. For the same molecule, under setting [14], the “Germination % … of 0.01 mg l^−1” value is listed as 84.4 abc %. Besides, under setting [15], the “Germination % … of 0.1 mg l^−1” value was determined as 69.9 bc %.

Turning to `CC1=CC(OC=C2C(=O)NC3c4ccc(F)cc4CC23)OC1=O` (stereo not drawn) [Compound A9], the “Germination % … of 0.001 mg l^−1” value under setting [13] was 90.2 ab %. For the same molecule, under setting [14], the “Germination % … of 0.01 mg l^−1” value was 85.2 abc %. The “Germination % … of 0.1 mg l^−1” value under setting [15] is reported as 71.5 bc %.

For the molecule `CC1=CC(OC=C2C(=O)NC3c4ccc(Cl)cc4CC23)OC1=O` (stereo not drawn) [Compound A10], under setting [1], the “Germination % … of 0.001 mg l^−1” value turned out to be 81.3 abc %. Moreover, the “Germination % … of 0.01 mg l^−1” value under setting [2] came to 84.0 ab %. For the same molecule, the “Germination % … of 0.1 mg l^−1” value under setting [3] turned out to be 85.1 ab %.

On to `CC1=CC(OC=C2C(=O)NC3c4cccc(C#N)c4CC23)OC1=O` (stereo not drawn) [Compound A11], for which the “Germination % … of 0.001 mg l^−1” value under setting [4] is recorded as 86.3 ab %. For the same molecule, under setting [5], the “Germination % … of 0.01 mg l^−1” value came to 88.4 ab %. Also, the “Germination % … of 0.1 mg l^−1” value under setting [6] was found to be 85.5 ab %.

Take `CCCc1cccc2c1C1NC(=O)C(=COC3C=C(C)C(=O)O3)C1C2` (stereo not drawn) [Compound A13]: the “Germination % … of 0.001 mg l^−1” value under setting [1] amounted to 14.3 de %. Moreover, the “Germination % … of 0.01 mg l^−1” value under setting [2] is 64.5 abcd %. Moreover, the “Germination % … of 0.1 mg l^−1” value under setting [3] was 21.5 cde %.

As to `CCCc1cccc2c1CC1C(=COC3C=C(C)C(=O)O3)C(=O)NC21` (stereo not drawn) [Compound A14], the “Germination % … of 0.001 mg l^−1” value under setting [4] was 85.3 ab %. In addition, the “Germination % … of 0.01 mg l^−1” value under setting [5] was 91.5 a %. For the same molecule, under setting [6], the “Germination % … of 0.1 mg l^−1” value is recorded as 86.2 ab %.

Regarding `CC1=CC(OC=C2C(=O)N(c3ccccc3)C3c4ccccc4CC23)OC1=O` (stereo not drawn) [Compound A17], under setting [10], the “Germination % … of 0.001 mg l^−1” value is given as 99.2 a %. Besides, the “Germination % … of 0.01 mg l^−1” value under setting [11] is given as 98.9 a %. For the same molecule, the “Germination % … of 0.1 mg l^−1” value under setting [12] was 99.4 a %.
